The record followed here is ChEMBL document CHEMBL5335811, “2-Phenylcyclopropylmethylamine (PCPMA) as a privileged scaffold for central nervous system drug design” (Bioorg Med Chem Lett, 2024).

By Emax is commonly meant the size of the effect at its maximum, as opposed to the concentration needed. A word on the EC50: it is the concentration needed to bring the measured effect to its halfway point. Higher therefore signals a need for much substance. In general, Ki refers to a dissociation constant, usually derived from enzyme kinetics or from competition with a known ligand.

Series [1] concerns the target T1, 5-hydroxytryptamine receptor 2A (Homo sapiens, UniProt P28223). Briefly: Agonist activity at 5HT2A receptor (unknown origin) at 10 uM relative to control. In kind it is functional.
Series [2] deals with T2, 5-hydroxytryptamine receptor 2C (Homo sapiens, UniProt P28335).
T2 sequence (P28335 whole entry): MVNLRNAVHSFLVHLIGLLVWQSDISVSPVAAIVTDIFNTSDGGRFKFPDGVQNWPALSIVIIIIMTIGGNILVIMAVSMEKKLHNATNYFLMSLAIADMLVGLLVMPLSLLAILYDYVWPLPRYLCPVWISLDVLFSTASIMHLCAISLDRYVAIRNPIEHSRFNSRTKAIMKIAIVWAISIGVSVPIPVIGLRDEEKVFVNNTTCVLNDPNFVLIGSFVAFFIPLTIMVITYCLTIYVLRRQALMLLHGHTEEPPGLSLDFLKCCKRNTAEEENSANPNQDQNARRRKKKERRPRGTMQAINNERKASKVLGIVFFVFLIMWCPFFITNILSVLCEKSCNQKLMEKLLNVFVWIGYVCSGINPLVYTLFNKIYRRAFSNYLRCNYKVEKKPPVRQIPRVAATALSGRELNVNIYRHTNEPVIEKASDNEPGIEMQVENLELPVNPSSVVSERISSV
Kind of series: Agonist activity at 5HT2C receptor (unknown origin). In kind it is functional.

For series [3], the target named is T3, 5-hydroxytryptamine receptor 2C (Homo sapiens) (UniProt P28335).
T3 sequence (whole entry): T2 sequence (P28335 whole entry)
Briefly: Agonist activity at 5HT2C receptor (unknown origin) at 10 uM relative to control. The series is classed as functional. The following applies: filed as agonist.

The target in series [4] is T1, 5-hydroxytryptamine receptor 2A. Briefly: Agonist activity at N-terminal HA-tagged human 5HT2A receptor. The series is classed as functional.
Series [5] is described as follows: Binding affinity to MT1 receptor (unknown origin) assessed as inhibition constant. Details: species or system Homo sapiens.
Series [6] addresses T4, Melatonin receptor type 1B (Homo sapiens, UniProt P49286).
T4 sequence (P49286 whole entry): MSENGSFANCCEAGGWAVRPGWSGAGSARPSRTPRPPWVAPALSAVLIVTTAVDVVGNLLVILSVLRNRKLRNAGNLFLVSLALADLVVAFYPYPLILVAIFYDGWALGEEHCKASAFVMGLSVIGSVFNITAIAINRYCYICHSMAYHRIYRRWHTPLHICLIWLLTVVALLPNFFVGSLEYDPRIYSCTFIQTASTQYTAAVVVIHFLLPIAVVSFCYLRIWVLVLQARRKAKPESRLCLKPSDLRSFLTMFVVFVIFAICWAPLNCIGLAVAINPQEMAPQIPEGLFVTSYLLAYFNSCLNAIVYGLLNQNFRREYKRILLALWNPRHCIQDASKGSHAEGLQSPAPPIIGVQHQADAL
Kind of series: Binding affinity to MT2 receptor (unknown origin) assessed as inhibition constant.

In series [7] the target is Sigma non-opioid intracellular receptor 1 (Homo sapiens, UniProt Q99720). Kind of series: Binding affinity to sigma1 receptor (unknown origin) assessed as inhibition constant.
Sequence of Sigma non-opioid intracellular receptor 1 (Q99720 whole entry): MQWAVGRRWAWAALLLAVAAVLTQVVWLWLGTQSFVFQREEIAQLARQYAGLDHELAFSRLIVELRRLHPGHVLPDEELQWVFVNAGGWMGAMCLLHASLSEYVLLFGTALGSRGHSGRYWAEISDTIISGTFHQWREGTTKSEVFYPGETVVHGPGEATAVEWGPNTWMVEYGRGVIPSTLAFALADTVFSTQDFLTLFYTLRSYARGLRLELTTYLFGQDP
For series [8], the target named is Sigma intracellular receptor 2 (Homo sapiens, UniProt Q5BJF2). Kind of series: Binding affinity to sigma 2 receptor (unknown origin) assessed as inhibition constant.
Sequence of Sigma intracellular receptor 2 (Q5BJF2 whole entry): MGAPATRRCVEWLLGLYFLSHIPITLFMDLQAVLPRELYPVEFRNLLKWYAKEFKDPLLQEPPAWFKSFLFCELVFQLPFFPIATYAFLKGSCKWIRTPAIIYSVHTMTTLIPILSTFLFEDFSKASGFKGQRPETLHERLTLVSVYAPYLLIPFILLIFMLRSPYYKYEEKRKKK
The species named for another series is Homo sapiens. Kind of series: Selectivity ratio of Ki for sigma 2 receptor (unknown origin) to Ki for sigma 1 receptor assessed as inhibition of constant.
Series [9] concerns the target T1, 5-hydroxytryptamine receptor 2A. Kind of series: Agonist activity at human 5HT2A receptor. The series is classed as functional.
Series [10] can be described thus: Terminal elimination half life in Sprague-Dawley rat at 12 mg/kg, po. The series is classed as ADME, organism-based. As to conditions: in vivo, read-out: beta t1/2 (converted).
The species named for series [11] is Mus musculus. Briefly: Antidepressant activity in USV-induced Swiss albino mouse model of depression assessed as minimum effective dose. The series is classed as functional. As to conditions: read-out: MED.
The species named for series [12] is Mus musculus. Kind of series: Antidepressant activity in Swiss albino mouse assessed as minimum effective dose by tail suspension test. The series is classed as functional. The following applies: read-out: MED.
A short description of series [13]: Effect on emotional-affective response in USV-induced Sprague-Dawley rat assessed as reduction in ultrasonic vocalization. In kind it is functional. As to conditions: read-out: MED.
Series [14] concerns the target T5, 5-hydroxytryptamine receptor 2B (Homo sapiens, UniProt P41595). Kind of series: Agonist activity at 5HT2B (unknown origin) at 1 uM relative to control. The series is classed as functional.
In series [15] the target is T3, 5-hydroxytryptamine receptor 2C (Homo sapiens). Briefly: Agonist activity at 5HT2C receptor (unknown origin) at 1 uM relative to control. The series is classed as functional. As to conditions: filed as agonist.
Series [16] concerns the target T1, 5-hydroxytryptamine receptor 2A. Kind of series: Agonist activity at N-terminal HA-tagged human 5HT2A receptor at 1 uM relative to control. In kind it is functional.
The target in series [17] is T5, 5-hydroxytryptamine receptor 2B. Briefly: Agonist activity at 5HT2B (unknown origin). In kind it is functional.

T1 sequence (P28223 whole entry): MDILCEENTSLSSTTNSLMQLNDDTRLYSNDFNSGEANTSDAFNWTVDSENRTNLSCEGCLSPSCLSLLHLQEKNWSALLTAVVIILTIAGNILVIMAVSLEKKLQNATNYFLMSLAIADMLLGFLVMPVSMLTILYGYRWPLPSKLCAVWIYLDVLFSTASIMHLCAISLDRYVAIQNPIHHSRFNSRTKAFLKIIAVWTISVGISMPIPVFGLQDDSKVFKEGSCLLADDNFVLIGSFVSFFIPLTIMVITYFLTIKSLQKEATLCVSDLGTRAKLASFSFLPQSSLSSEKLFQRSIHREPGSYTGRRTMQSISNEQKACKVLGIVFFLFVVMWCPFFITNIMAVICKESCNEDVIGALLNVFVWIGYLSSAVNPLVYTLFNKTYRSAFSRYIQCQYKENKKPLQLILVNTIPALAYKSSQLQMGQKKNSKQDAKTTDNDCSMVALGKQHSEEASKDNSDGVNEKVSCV
T5 sequence (P41595 whole entry): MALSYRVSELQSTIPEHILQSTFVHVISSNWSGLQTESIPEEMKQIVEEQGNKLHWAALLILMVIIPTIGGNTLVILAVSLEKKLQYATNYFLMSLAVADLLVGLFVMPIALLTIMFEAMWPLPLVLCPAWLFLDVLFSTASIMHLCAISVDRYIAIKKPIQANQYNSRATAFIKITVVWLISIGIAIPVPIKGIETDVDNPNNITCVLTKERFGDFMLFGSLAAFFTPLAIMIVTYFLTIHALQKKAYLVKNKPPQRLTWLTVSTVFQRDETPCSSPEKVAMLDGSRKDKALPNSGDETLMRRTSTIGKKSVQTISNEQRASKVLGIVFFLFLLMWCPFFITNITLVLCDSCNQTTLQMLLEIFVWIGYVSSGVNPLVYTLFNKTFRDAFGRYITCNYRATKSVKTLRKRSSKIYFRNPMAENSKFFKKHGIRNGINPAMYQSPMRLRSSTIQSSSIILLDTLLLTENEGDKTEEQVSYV

In the case of `NC[C@@H]1C[C@@H]1c1cc(O)ccc1OCC1CC1`, the Emax came out at 18% in [1] and 70% in series [3]. Besides, the EC50 in series [2] was 9.3 nM; in [4], 372 nM.
For `CCC(=O)NC[C@@H]1C[C@H]1c1cccc2c1CCO2` [TASIMELTEON], the Ki in [5] stood at 0.3 nM; in [6], 0.07 nM.
In the case of `COC(=O)[C@]1(c2ccccc2)C[C@@H]1CN1CCC(O)(c2ccc(Cl)cc2)CC1`, the results for the Ki in [7] and in [8] were 1.51 nM and 21.9 nM, respectively. For the same compound, the Selectivity ratio in the series listed under Homo sapiens amounted to 5.5.
Consider `CC1(C)Cc2cc(Cl)cc([C@H]3C[C@H]3CN)c2O1`, for which, in series [9], it took 600 nM to reach a half-maximal effect (EC50).
With `CCN(CC)C(=O)[C@@]1(c2ccccc2)C[C@H]1CN` [LEVOMILNACIPRAN], the half-life in [10] was 720 min. The minimal effective dose amounted to 20 mg/kg in the series listed under Mus musculus [11], 2.5 mg/kg in the series filed under Mus musculus [12] and 5 mg/kg in [13].
In the case of `NC[C@@H]1C[C@@H]1c1cc(F)ccc1OCC1CC1`, the EC50 in series [2] worked out at 21 nM; in series [4], 894 nM; in series [17] it was 289 nM. For the same compound, the Emax in series [14] stood at 21%; in series [15], 71%; in [16], 29%.
